Measurements taken from PMC7913927, “Leishmanicidal Activity of Betulin Derivatives in Leishmania amazonensis; Effect on Plasma and Mitochondrial Membrane Potential, and Macrophage Nitric Oxide and Superoxide Production” (Microorganisms, 2021).
Read-outs that look alike come from different tables or passages of the source.

System: VE2000MM intracellular amastigotes in J774.1 macrophages
Test: Macrophage-amastigote model, patient isolate VE2000MM
Assay type: cell-based, Leishmania amazonensis
Details: for Regresion (GraphPad 6) of %Control vs dose (50% inhibitory concentration) / Growth (%) Exp1 %Control / Growth (%) Exp1 A/100MØ / Growth (%) Exp1 A/MØ / Growth (%) Exp1 Infección / Growth (%) Exp2 %Control / Growth (%) Exp2 A/100MØ / Growth (%) Exp2 A/MØ / Growth (%) Exp2 Infección / Growth (%) Exp3 %Control / Growth (%) Exp3 A/100MØ / Growth (%) Exp3 A/MØ / Growth (%) Exp3 Infección / Average A/100MØ: VE2000MM; for Regresion (GraphPad 6) of %Control vs dose (50% inhibitory concentration): unit from Dose head; for Average A/100MØ: average of Exp1-3
Procedure: We used a previously described methodology, with some modifications. Macrophage monolayers, grown in RMPIc medium, for 3 days, were detached from the bottom of the culture chamber, by physical treatment (low temperature and light strokes). Obtained macrophages were seeded in flat-bottom 96-well culture plates, at a density of 2 × 10^5 cells mL^−1 (40,000 macrophages/well), in a final volume of 200 µL. Plates were incubated for 2 h, and the supernatant was discarded to remove non-adhered macrophages. Medium was replaced with stationary-phase promastigotes suspended in 200 µL of RPMIc (2 × 10^6 parasites mL^−1, 400,000 parasites/well), at a macrophage: parasite ratio 1:10 [40]. The plates were incubated for 4 h. Afterwards the medium was replaced with fresh RPMIc and increasing concentrations of compounds or drugs tested were applied, in volumes of 2 µL, according to the different treatment groups. Plates were kept for 72 h, at 37 °C and 5% CO2. The medium was discarded and the wells were washed twice with PBS. Next, a Giemsa staining was performed in situ. It consisted of adding 200 µL of methanol/well, incubating for 5 min, discarding the fixative, and letting it dry at room temperature. Later, the Giemsa solution (10% in PBS w/v, 200 µL/well) was added, incubated for 10 min, and washed with PBS, allowing it to dry. Finally, the bottom of the plates was detached by percussion and the circular bottoms (wells) were fixed to slides with Permount synthetic resin, for later evaluation (Alcazar W., manuscript in preparation). Cell counting was performed with a 100× immersion objective. A minimum of 200 random macrophages were examined. The percentage of infected macrophages (% infection) and the average number of amastigotes present in infected macrophages (amastigotes) were determined. […] The infection rate represents the number of intracellular amastigotes per 100 macrophages evaluated. Additionally, the GI50 for the decrease in the infection rate was calculated. At least three independent experiments were performed. The effect of amphotericin-B (AmB) [Sigma-Aldrich, (St. Louis, MO, USA)] was included as positive control of the assay.

C=C(C)C1CCC2(C=NO)CCC3(C)C(CCC4C5(C)CCC(=NO)C(C)(C)C5CCC43C)C12 (stereo not shown) [Compound 18]
SI (CC50/GI50) VE2000MM (J774.1 CC50 / intracellular amastigote GI50, Table 2): 66.79
GI50 (VE2000MM intracellular amastigotes, read-out: GI50 (µM) Experiment 1 Regresion): 0.87 µM
GI50 (VE2000MM intracellular amastigotes, read-out: GI50 (µM) Experiment 2 Regresion): 0.43 µM
GI50 (VE2000MM intracellular amastigotes, read-out: GI50 (µM) Experiment 3 Regresion): 0.62 µM
Regresion (GraphPad 6) of %Control vs dose (50% inhibitory concentration) (Exp1): 0.87 µM
Regresion (GraphPad 6) of %Control vs dose (50% inhibitory concentration) (Exp2): 0.43 µM
Regresion (GraphPad 6) of %Control vs dose (50% inhibitory concentration) (Exp3): 0.62 µM
Growth (%) Exp1 %Control (dose 0.10 µM, Exp1): 85.88%
Growth (%) Exp1 A/100MØ (dose 0.10 µM, Exp1): 212.29
Growth (%) Exp1 A/MØ (dose 0.10 µM, Exp1): 3.35
Growth (%) Exp1 Infección (dose 0.10 µM, Exp1): 63.37%
Growth (%) Exp2 %Control (dose 0.10 µM, Exp2): 78.62%
Growth (%) Exp2 A/100MØ (dose 0.10 µM, Exp2): 190.11
Growth (%) Exp2 A/MØ (dose 0.10 µM, Exp2): 3.20
Growth (%) Exp2 Infección (dose 0.10 µM, Exp2): 59.41%
Growth (%) Exp3 %Control (dose 0.10 µM, Exp3): 72.17%
Growth (%) Exp3 A/100MØ (dose 0.10 µM, Exp3): 163.09
Growth (%) Exp3 A/MØ (dose 0.10 µM, Exp3): 3.10
Growth (%) Exp3 Infección (dose 0.10 µM, Exp3): 52.61%
Average A/100MØ (dose 0.10 µM): 188.50
Growth (%) Exp1 %Control (dose 0.50 µM, Exp1): 66.72%
Growth (%) Exp1 A/100MØ (dose 0.50 µM, Exp1): 164.92
Growth (%) Exp1 A/MØ (dose 0.50 µM, Exp1): 2.90
Growth (%) Exp1 Infección (dose 0.50 µM, Exp1): 56.87%
Growth (%) Exp2 %Control (dose 0.50 µM, Exp2): 51.58%
Growth (%) Exp2 A/100MØ (dose 0.50 µM, Exp2): 124.74
Growth (%) Exp2 A/MØ (dose 0.50 µM, Exp2): 2.98
Growth (%) Exp2 Infección (dose 0.50 µM, Exp2): 41.86%
Growth (%) Exp3 %Control (dose 0.50 µM, Exp3): 54.73%
Growth (%) Exp3 A/100MØ (dose 0.50 µM, Exp3): 123.67
Growth (%) Exp3 A/MØ (dose 0.50 µM, Exp3): 3.24
Growth (%) Exp3 Infección (dose 0.50 µM, Exp3): 38.17%
Average A/100MØ (dose 0.50 µM): 137.78
Growth (%) Exp1 %Control (dose 1.00 µM, Exp1): 45.38%
Growth (%) Exp1 A/100MØ (dose 1.00 µM, Exp1): 112.17
Growth (%) Exp1 A/MØ (dose 1.00 µM, Exp1): 2.76
Growth (%) Exp1 Infección (dose 1.00 µM, Exp1): 40.64%
Growth (%) Exp2 %Control (dose 1.00 µM, Exp2): 23.47%
Growth (%) Exp2 A/100MØ (dose 1.00 µM, Exp2): 56.76
Growth (%) Exp2 A/MØ (dose 1.00 µM, Exp2): 1.93
Growth (%) Exp2 Infección (dose 1.00 µM, Exp2): 29.41%
Growth (%) Exp3 %Control (dose 1.00 µM, Exp3): 44.34%
Growth (%) Exp3 A/100MØ (dose 1.00 µM, Exp3): 100.21
Growth (%) Exp3 A/MØ (dose 1.00 µM, Exp3): 2.85
Growth (%) Exp3 Infección (dose 1.00 µM, Exp3): 35.16%
Average A/100MØ (dose 1.00 µM): 89.71
Growth (%) Exp1 %Control (dose 5.00 µM, Exp1): 12.40%
Growth (%) Exp1 A/100MØ (dose 5.00 µM, Exp1): 30.64
Growth (%) Exp1 A/MØ (dose 5.00 µM, Exp1): 1.33
Growth (%) Exp1 Infección (dose 5.00 µM, Exp1): 23.04%
Growth (%) Exp2 %Control (dose 5.00 µM, Exp2): 17.91%
Growth (%) Exp2 A/100MØ (dose 5.00 µM, Exp2): 43.32
Growth (%) Exp2 A/MØ (dose 5.00 µM, Exp2): 2.00
Growth (%) Exp2 Infección (dose 5.00 µM, Exp2): 21.66%
Growth (%) Exp3 %Control (dose 5.00 µM, Exp3): 26.77%
Growth (%) Exp3 A/100MØ (dose 5.00 µM, Exp3): 60.50
Growth (%) Exp3 A/MØ (dose 5.00 µM, Exp3): 2.96
Growth (%) Exp3 Infección (dose 5.00 µM, Exp3): 20.44%
Average A/100MØ (dose 5.00 µM): 44.82
Growth (%) Exp1 %Control (dose 10.00 µM, Exp1): 11.00%
Growth (%) Exp1 A/100MØ (dose 10.00 µM, Exp1): 27.18
Growth (%) Exp1 A/MØ (dose 10.00 µM, Exp1): 1.50
Growth (%) Exp1 Infección (dose 10.00 µM, Exp1): 18.12%
Growth (%) Exp2 %Control (dose 10.00 µM, Exp2): 9.36%
Growth (%) Exp2 A/100MØ (dose 10.00 µM, Exp2): 22.64
Growth (%) Exp2 A/MØ (dose 10.00 µM, Exp2): 1.78
Growth (%) Exp2 Infección (dose 10.00 µM, Exp2): 12.72%
Growth (%) Exp3 %Control (dose 10.00 µM, Exp3): 7.87%
Growth (%) Exp3 A/100MØ (dose 10.00 µM, Exp3): 17.78
Growth (%) Exp3 A/MØ (dose 10.00 µM, Exp3): 1.69
Growth (%) Exp3 Infección (dose 10.00 µM, Exp3): 10.52%
Average A/100MØ (dose 10.00 µM): 22.53
GI50 (intracellular amastigotes, Supplementary Materials II, read-out: GI50 (µM) VE2000MM, mean of three experiments): 0.64 µM
